Key:
Escherichia coli = assay: Traditional culture-based antimicrobial susceptibility test; assay type: cell-based
Description: Table 3 illustrates the results of an example antimicrobial agent susceptibility test of the current application versus a traditional culture-based antimicrobial agent susceptibility test for multiple Escherichia coli isolates, in accordance with one or more embodiments of the disclosure. These specimens underwent extraction or DNA purification prior to PCR. As in Tables 1 and 2, the results of the test of the current application are similar to the results from the traditional test. […]
Table 8 illustrates the results of an example antimicrobial agent susceptibility test of the current application versus a traditional culture-based antimicrobial agent susceptibility test for a low level positive with <10,000 cells/mL in the original specimen. These specimens were tested with direct PCR (e.g., no extraction DNA purification step prior to PCR) after 16 hours of incubation. As in Tables 1, 2, 3, 5, and 7, the results of the test are similar to the traditional test. […]

E. coli = assay: Molecular phenotypic antimicrobial susceptibility test with direct PCR (no extraction DNA purification step); assay type: cell-based, Escherichia coli
Protocol: Detection of Molecular Phenotypic Antimicrobial Susceptibility. Disclosed herein are the methods for the detection of phenotypic antimicrobial susceptibility via molecular methods. The present invention describes how a specimen 100 with a known microbial load is incubated and then exposed to a panel of antimicrobial agents to determine sensitivity (prevention of growth) or resistance (allowance of growth) to the specific antimicrobial agents tested utilizing molecular methods.
Sample Collection. Specimens 100 are collected from patients using sterile collection processes that are employed in routine clinical care. Specimens are transported to the testing facility in boric acid preservative. Specimens 100 are subsequently divided into a first sample 104 and a second sample 108.
Preparation of the Specimens for Testing. The specimens 100 are put through a pathogen identification process using PCR technology (e.g., using the first sample 104). The process for pathogen isolation includes steps of harvesting the pathogen (e.g., via centrifugation), isolating pathogen DNA via a DNA isolation and/or purification kit, and performing PCR on the pathogen DNA via PCR components (e.g., primers, enzymes, buffers) as would be known to the skilled artisan. Simultaneously, an additional aliquot of the same specimen (e.g., the second sample 108) is placed with liquid culture media and incubated for 4-6 hours. This aliquot is used for antimicrobial susceptibility testing if indicated based on the pathogen detection results. After pathogen identification is completed and if more than 10,000 cells/mL of bacteria (e.g., eligible bacteria) are detected in the source specimen, the second sample 108 then enters the antimicrobial susceptibility phase of testing. Specimens 100 with lower pathogen loads could also be utilized in the antibiotic susceptibility phase of testing with or without a longer incubation period.
Preparation of Antimicrobial Susceptibility Testing Plates. Antimicrobial solutions are prepared at known concentrations. The specific antimicrobials and their concentrations are selected based on the pathogen of interest and the described antimicrobial resistance breakpoints for that specimen pathogen and antimicrobial combination. These antimicrobials have been selected based on those commonly utilized by healthcare providers in routine clinical care for the specific type of suspected infection. The number and types of antimicrobials utilized can be customized based on the infection source, pathogen detected, patient-specific factors such as allergies or other health conditions (e.g., chronic kidney disease or concurrent medication use), or healthcare provider preferences such as antimicrobial availability or cost.
The antimicrobial solutions are prepared in liquid culture media (such as Muller Hinton Broth) to achieve the desired antimicrobial concentration and are then stored at −80° C. until use. For a given specimen, each antimicrobial is tested at a single or multiple antimicrobial concentration(s) which is its established breakpoints for sensitivity. The antimicrobial solutions are prepared and plated out for each specific pathogen. This allows ease of use on the day of testing after defrosting the plate 112. Table 1, which illustrates the results of molecular phenotypic antimicrobial susceptibility testing when more than one organism is present in the source specimen, provides an example of an antimicrobial plate 112 prepared for this purpose. Of note, control wells containing only culture media are present on all plates 112. This allows for evaluation of pathogen load when no antimicrobial is present.
Specimen Exposure to Antimicrobial Agents. The 1 mL aliquot of the specimen 100 previously mixed with culture media and incubated is obtained. Using optical density measurements as a guide, the specimen 100 is diluted to 0.5 McFarland. […]

[1] = E. coli #1 - WDCM 00090 - 6.2×E3
[2] = E. coli #2 - WDCM 00090 - 6.2×E3
[3] = E. coli #1 - WDCM 00090 - 6.2×E3, specimen with <10,000 cells/mL, direct PCR after 16 hours of incubation
[4] = E. coli #1 - WDCM 00090 - 6.2×E3, specimen with <10,000 cells/mL, direct PCR after 16 hours of incubation, Ct at control 13.787
[5] = E. coli #2 - WDCM 00090 - 6.2×E3, specimen with <10,000 cells/mL, direct PCR after 16 hours of incubation
[6] = E. coli #2 - WDCM 00090 - 6.2×E3, specimen with <10,000 cells/mL, direct PCR after 16 hours of incubation, Ct at control 13.46
[7] = E. coli isolate JJ1887, direct PCR, Ct at control (average) 12.832
[8] = E. coli isolate JJ1887, direct PCR, at sensitive breakpoint

Row | Compound | Traditional Culture Results (Escherichia coli; [1]) | Traditional Culture Results (Escherichia coli; [2]) | Traditional Culture Result (Escherichia coli; E. coli isolate 4 (Table 3)) | Traditional Culture Result (Escherichia coli; E. coli isolate 5 (Table 3)) | Traditional Culture Result (Escherichia coli; E. coli isolate JJ1887) | Molecular Antimicrobial Susceptibility Result (E. coli; [3]) | Ct at Sensitive Breakpoint (E. coli; [4]) | Molecular Antimicrobial Susceptibility Result (E. coli; [5]) | Ct at Sensitive Breakpoint (E. coli; [6]) | Ct at Sensitive Breakpoint (E. coli; [7]) | Molecular Antimicrobial Susceptibility Result (E. coli; [8]) | Traditional Culture Result (Escherichia coli; E. coli isolate 1 (Table 3)) | Traditional Culture Result (Escherichia coli; E. coli isolate 2 (Table 3)) | Traditional Culture Result (Escherichia coli; E. coli isolate 3 (Table 3))
1 | CC1(C)S[C@@H]2[C@H](NC(=O)[C@H](N)c3ccccc3)C(=O)N2[C@H]1C(=O)O [Ampicillin] | Sensitive | Sensitive | Resistant | Sensitive | Resistant | Sensitive (Antimicrobial wells with pathogen load detected below the control wells (typically >2 cycle thresholds later) may be reported as Sensitive) | 25.93 | Sensitive (Antimicrobial wells with pathogen load detected below the control wells (typically >2 cycle thresholds later) may be reported as Sensitive) | 26.22 | 12.265 | Resistant | – | – | –
2 | Cc1nnc(SCC2=C(C(=O)O)N3C(=O)[C@@H](NC(=O)Cn4cnnn4)[C@H]3SC2)s1 [Cefazolin] | Sensitive | Sensitive | Resistant | Sensitive | Resistant | Sensitive (Antimicrobial wells with pathogen load detected below the control wells (typically >2 cycle thresholds later) may be reported as Sensitive) | 25.72 | Sensitive (Antimicrobial wells with pathogen load detected below the control wells (typically >2 cycle thresholds later) may be reported as Sensitive) | 26.56 | 12.804 | Resistant | Resistant | Resistant | Resistant
3 | CO/N=C(\C(=O)N[C@@H]1C(=O)N2C(C(=O)[O-])=C(C[N+]3(C)CCCC3)CS[C@H]12)c1csc(N)n1 [Cefepime] | – | – | Resistant | Sensitive | Resistant | – | – | – | – | 12.796 | Resistant | – | – | –
4 | CO[C@@]1(NC(=O)Cc2cccs2)C(=O)N2C(C(=O)O)=C(COC(N)=O)CS[C@@H]21 [Cefoxitin] | – | – | Sensitive | Sensitive | – | – | – | – | – | – | – | – | – | –
5 | CO/N=C(\C(=O)N[C@@H]1C(=O)N2C(C(=O)O)=C(CSc3nc(=O)c(=O)[nH]n3C)CS[C@H]12)c1csc(N)n1 [Ceftriaxone] | Sensitive | Sensitive | Resistant | Sensitive | Resistant | Sensitive (Antimicrobial wells with pathogen load detected below the control wells (typically >2 cycle thresholds later) may be reported as Sensitive) | 26.31 | Sensitive (Antimicrobial wells with pathogen load detected below the control wells (typically >2 cycle thresholds later) may be reported as Sensitive) | 27.18 | 12.353 | Resistant | Resistant | Resistant | Resistant
6 | O=C(O)c1cn(C2CC2)c2cc(N3CCNCC3)c(F)cc2c1=O [Ciprofloxacin] | – | – | Resistant | Sensitive | Resistant | – | – | – | – | 12.215 | Resistant | Resistant | Resistant | Resistant
7 | C[C@@H]1O[C@@H]1P(=O)(O)O [Fosfomycin] | Sensitive | Sensitive | – | – | – | Sensitive (Antimicrobial wells with pathogen load detected below the control wells (typically >2 cycle thresholds later) may be reported as Sensitive) | 27.59 | Sensitive (Antimicrobial wells with pathogen load detected below the control wells (typically >2 cycle thresholds later) may be reported as Sensitive) | 28.41 | – | – | – | – | –
8 | C[C@H]1COc2c(N3CCN(C)CC3)c(F)cc3c(=O)c(C(=O)O)cn1c23 [Levofloxacin] | – | – | – | – | – | – | – | – | – | 12.562 | Resistant | – | – | –
9 | C[C@@H](O)[C@H]1C(=O)N2C(C(=O)O)=C(S[C@@H]3CN[C@H](C(=O)N(C)C)C3)[C@H](C)[C@H]12 [Meropenem] | – | – | – | – | Sensitive | – | – | – | – | 25.055 | Sensitive (Antimicrobial wells with pathogen load detected below the control wells (typically >2 cycle thresholds later) may be reported as Sensitive) | Sensitive | Sensitive | Sensitive
10 | O=C1CN(/N=C/c2ccc([N+](=O)[O-])o2)C(=O)N1 [Nitrofurantoin] | – | – | – | – | – | Sensitive (Antimicrobial wells with pathogen load detected below the control wells (typically >2 cycle thresholds later) may be reported as Sensitive) | 27.90 | Sensitive (Antimicrobial wells with pathogen load detected below the control wells (typically >2 cycle thresholds later) may be reported as Sensitive) | 28.97 | 26.305 | Sensitive (Antimicrobial wells with pathogen load detected below the control wells (typically >2 cycle thresholds later) may be reported as Sensitive) | – | – | –
11 | Ampicillin/Sulbactam | – | – | – | – | Resistant | – | – | – | – | 12.693 | Resistant | Resistant | Resistant | Resistant
12 | Gentamicin | Sensitive | Sensitive | Sensitive | Sensitive | Resistant | Sensitive (Antimicrobial wells with pathogen load detected below the control wells (typically >2 cycle thresholds later) may be reported as Sensitive) | 28.57 | Sensitive (Antimicrobial wells with pathogen load detected below the control wells (typically >2 cycle thresholds later) may be reported as Sensitive) | 28.70 | 12.308 | Resistant | Sensitive | Sensitive | Sensitive

Source: US20250290117A1, “MOLECULAR PHENOTYPIC ANTIMICROBIAL SUSCEPTIBILITY TESTING” (priority 2024, published 2025)
